Target: T1, Human BACE (Homo sapiens, UniProt P56817)
T1 construct: Recombinant BACE (extracellular domain, expressed in baculovirus and purified using standard methods); made in house; host or cells: baculovirus expression system (insect cells)
Test: Test 1: Inhibition of Human BACE
Format: biochemical
Settings: recombinant BACE, fluorescence-quenched peptide substrate, pH 4.5
Protocol: Test 1: Inhibition of Human BACE
Recombinant BACE (extracellular domain, expressed in baculovirus and purified using standard methods) at 0.1 to 10 nM concentrations is incubated with the test compound at various concentrations for 1 hour at room temperature in 10 to 100 mM acetate buffer, pH 4.5, containing 0.1% CHAPS.

T1 sequence (P56817 46-457 limits assumed): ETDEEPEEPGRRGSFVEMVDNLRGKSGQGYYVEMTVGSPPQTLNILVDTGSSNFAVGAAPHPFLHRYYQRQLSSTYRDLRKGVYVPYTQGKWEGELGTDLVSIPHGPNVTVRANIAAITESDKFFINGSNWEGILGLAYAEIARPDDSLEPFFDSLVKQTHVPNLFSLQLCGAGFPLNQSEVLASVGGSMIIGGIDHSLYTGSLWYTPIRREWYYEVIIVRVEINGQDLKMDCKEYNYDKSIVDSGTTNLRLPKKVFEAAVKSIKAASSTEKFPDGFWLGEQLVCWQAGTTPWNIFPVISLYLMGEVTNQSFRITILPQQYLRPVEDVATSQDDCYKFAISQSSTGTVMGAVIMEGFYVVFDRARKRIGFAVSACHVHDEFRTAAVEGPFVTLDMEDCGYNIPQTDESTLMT

- IC50: 40 nM
Compound: COc1cc2cc(c1)C(=O)N[C@H]([C@H](O)CNC1(c3cc(C(C)(C)C)ccn3)CC1)C[C@H](C)CCCCCCCN2 [Example 7, (10R,12S)-12-{(R)-2-[1-(4-tert-Butyl-pyrid-2-yl)-cyclopropylamino]-1-hydroxy-ethyl}-17-methoxy-10-methyl-2,13-diaza-bicyclo[13.3.1]nonadeca-1(19),15,17-trien-14-one]

— US20090312370A1, “MACROCYCLIC COMPOUNDS USEFUL AS BACE INHIBITORS” (priority 2006, published 2009)
